Values of other authors, collected in patent US20090022789A1 (Supernus Pharmaceuticals, Inc., priority 2007, published 2009).

Settings: oral administration, IR form

- first-pass metabolism: negligible
Compound: Nc1nnc(-c2cccc(Cl)c2Cl)c(N)n1 [lamotrigine, 3,5-diamino-6-(2,3-dichlorophenyl)-as-triazine]
